Values quoted from earlier work as cited in patent US7666823B2, “Lens care solutions” (Novartis AG, priority 2005, dated 2010).

Details: dissociation constant of the dibasic compound, aqueous

- pKa1: 6.8
- pKa2: 9.5
SMILES: OCC(CO)(CO)NCCCNC(CO)(CO)CO [bis-TRIS-propane, 1,3-bis(tris[hydroxymethyl]methylamino)propane]
